In PubChem BioAssay AID504343 (Broad Institute, 2011):
Inconclusive results are not listed. The source made the active and inactive calls.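 The calls were made as follows: active = fitted curve reaches 10% of positive control caspase signal at or below top valid tested dose; inconclusive = flat fit at 30 to 70% activity, or unreliable fit; inactive = the rest.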

How the values were obtained:
[1] = caspase activation in Mcl1-dependent HMC1-8 cells, dose response, selectivity assay for Bcl2-A1 inhibitor project, cell-based, caspase luminescence, dry powder, set 2 (AID 504343); conditions: HMC1-8 Mcl1-dependent cells, caspase-Glo luminescence, 4 h; at 35 µM (top of the series)
[2] = test system: HMC1-8 Mcl1-dependent cells, caspase-Glo luminescence, 4 h; test: as above

| SMILES | caspase activation [1] | AC10 [2] |
| --- | --- | --- |
| Cn1c(=O)c([N+](=O)[O-])c(Oc2ccccc2)c2ccccc21 | 2.58% (inactive) | – |
| Cc1ccc(Nc2c([N+](=O)[O-])c(=O)oc3ccccc23)cc1 | 12.1% (inactive) | – |
| CCOCCCNc1c([N+](=O)[O-])c(=O)n(C)c2ccccc12 | -2.94% (inactive) | – |
| Cn1c(=O)c([N+](=O)[O-])c(-n2cnc3ccccc32)c2ccccc21 | – | 20 µM |
| Cc1ccc(Nc2c([N+](=O)[O-])c(=O)n(C)c3ccccc23)cc1 | 10.1% (inactive) | – |
| Cc1ccc(Sc2c([N+](=O)[O-])c(=O)n(C)c3ccccc23)cc1 | 0.553% (inactive) | – |
| Cc1ccc(Sc2c([N+](=O)[O-])cnc3ccccc23)cc1 | – | 25 µM |
| CN1C(=O)C(C)(C)N(Cc2ccccc2)c2ccccc21 | 9.6% (inactive) | – |
| O=[N+]([O-])c1cnc2ccccc2c1Sc1ccccc1 | – | 25 µM |
| Cn1c(=O)c([N+](=O)[O-])c(Nc2ccc(Cl)cc2)c2ccccc21 | 1.67% (inactive) | – |
| C/C1=C/C(=O)O[C@@H]2C[C@@H](CC[C@H](C)/C=C\CC1)O[C@@](O)(C1CSC(=O)N1)C2 (some centres not stated) | – | > 35 µM (inactive) |
| Cn1c(=O)c([N+](=O)[O-])c(Cl)c2ccccc21 | -12.8% (inactive) | – |
